System: select kinases
Assay: KINOMEscan in vitro competition binding assay for select kinases

Cc1cccc(CC(=O)N2CCc3c2ccc(-c2cn(C)c4ncnc(N)c24)c3F)n1 [GSK2656157, reference compound]
KINOMEscan competition binding, inhibition of AURKB (kinase AURKB): Inhibition (“Inhibition” refers to greater than 50% inhibition) | KINOMEscan competition binding, inhibition of AXL (kinase AXL): Inhibition (“Inhibition” refers to greater than 50% inhibition) | KINOMEscan competition binding, inhibition of BLK (kinase BLK): Inhibition (“Inhibition” refers to greater than 50% inhibition) | KINOMEscan competition binding, inhibition of CAMK4 (kinase CAMK4): No inhibition | KINOMEscan competition binding, inhibition of CDK8 (kinase CDK8): Inhibition (“Inhibition” refers to greater than 50% inhibition) | KINOMEscan competition binding, inhibition of CDK11 (kinase CDK11): Inhibition (“Inhibition” refers to greater than 50% inhibition) | KINOMEscan competition binding, inhibition of CSF1R (kinase CSF1R): Inhibition (“Inhibition” refers to greater than 50% inhibition) | KINOMEscan competition binding, inhibition of EIF2AK1 (kinase EIF2AK1): Inhibition (“Inhibition” refers to greater than 50% inhibition) | KINOMEscan competition binding, inhibition of EPHB6 (kinase EPHB6): Inhibition (“Inhibition” refers to greater than 50% inhibition) | KINOMEscan competition binding, inhibition of FLT3 (kinase FLT3): No Inhibition (“No Inhibition” refers to less than 50% inhibition) | KINOMEscan competition binding, inhibition of HIPK4 (kinase HIPK4): No Inhibition (“No Inhibition” refers to less than 50% inhibition) | KINOMEscan competition binding, inhibition of LOK (kinase LOK): Inhibition (“Inhibition” refers to greater than 50% inhibition) | KINOMEscan competition binding, inhibition of MAP3K2 (kinase MAP3K2): Inhibition (“Inhibition” refers to greater than 50% inhibition) | KINOMEscan competition binding, inhibition of MAP3K3 (kinase MAP3K3): No Inhibition (“No Inhibition” refers to less than 50% inhibition) | KINOMEscan competition binding, inhibition of MAP3K15 (kinase MAP3K15): No Inhibition (“No Inhibition” refers to less than 50% inhibition) | KINOMEscan competition binding, inhibition of MEK5 (kinase MEK5): Inhibition (“Inhibition” refers to greater than 50% inhibition) | KINOMEscan competition binding, inhibition of MKNK2 (kinase MKNK2): No Inhibition (“No Inhibition” refers to less than 50% inhibition) | KINOMEscan competition binding, inhibition of NEK1 (kinase NEK1): No Inhibition (“No Inhibition” refers to less than 50% inhibition) | KINOMEscan competition binding, inhibition of NEK5 (kinase NEK5): No Inhibition (“No Inhibition” refers to less than 50% inhibition) | KINOMEscan competition binding, inhibition of PIK3C2B (kinase PIK3C2B): No Inhibition (“No Inhibition” refers to less than 50% inhibition) | KINOMEscan competition binding, inhibition of RIOK2 (kinase RIOK2): Inhibition (“Inhibition” refers to greater than 50% inhibition) | KINOMEscan competition binding, inhibition of RIPK1 (kinase RIPK1): Inhibition (“Inhibition” refers to greater than 50% inhibition) | KINOMEscan competition binding, inhibition of RIPK2 (kinase RIPK2): No Inhibition (“No Inhibition” refers to less than 50% inhibition) | KINOMEscan competition binding, inhibition of RIPK5 (kinase RIPK5): No Inhibition (“No Inhibition” refers to less than 50% inhibition) | KINOMEscan competition binding, inhibition of TESK1 (kinase TESK1): No Inhibition (“No Inhibition” refers to less than 50% inhibition) | KINOMEscan competition binding, inhibition of TIE2 (kinase TIE2): No Inhibition (“No Inhibition” refers to less than 50% inhibition) | KINOMEscan competition binding, inhibition of TRKA (kinase TRKA): Inhibition (“Inhibition” refers to greater than 50% inhibition) | KINOMEscan competition binding, inhibition of TRKB (kinase TRKB): No Inhibition (“No Inhibition” refers to less than 50% inhibition) | KINOMEscan competition binding, inhibition of TRKC (kinase TRKC): Inhibition (“Inhibition” refers to greater than 50% inhibition) | KINOMEscan competition binding, inhibition of VRK2 (kinase VRK2): Inhibition (“Inhibition” refers to greater than 50% inhibition) | KINOMEscan competition binding, inhibition of YANK1 (kinase YANK1): No Inhibition (“No Inhibition” refers to less than 50% inhibition) | KINOMEscan competition binding, inhibition of YANK2 (kinase YANK2): No Inhibition (“No Inhibition” refers to less than 50% inhibition) | KINOMEscan competition binding, inhibition of YSK4 (kinase YSK4): Inhibition (“Inhibition” refers to greater than 50% inhibition)
